Legend:
PRMT1 [1] = molecular target: T1, PRMT1 (Homo sapiens, UniProt Q99873); experiment: PRMT1 Enzymatic Assay (LANCE TR-FRET, methylation of histone H4 at Arg3); format: biochemical; parameters: purchased SignalChem P365-380G; conditions: PRMT1 1.5 nM, SAM 1 μM, biotinylated histone H4 (1-21) 25 nM; read-out: PRMT-1 IC50
Procedure: In order to measure PRMT1 enzymatic activity the LANCE TR-FRET assay from PerkinElmer was used to follow the methylation of histone H4 at Arg3 using S-adenosyl-L-methionine (SAM) as the methyl group donor.
This enzymatic assay was performed in a 384 well, white, low volume plate (PerkinElmer, Catalog 6008289) with assay buffer consisting of 50 mM Hepes (pH 8) (Teknova, Catalog #H1090), 1 mM TCEP (Sigma, Catalog #C4706), and 0.003% Tween-20 (Thermo, Catalog #85114). Stock solutions of the test compounds were prepared in 100% DMSO (Sigma, Catalog #D2650) and serially diluted 1:3 using 100% DMSO. Compounds were additionally diluted 1:40 in assay buffer, and 2 uL/well were transferred to the assay plate. 4 uL/well (final concentration 1.5 nM) of PRMT1 protein (SignalChem, Catalog #P365-380G) diluted in assay buffer was added to the assay plate followed by a 15 min preincubation at room temperature. 4 uL/well of SAM (Sigma, Catalog #A7007) and biotinylated histone H4 (1-21) (AnaSpec, Catalog #62555) (final concentrations 1 μM and 25 nM, respectively) diluted in assay buffer were then added to the assay plate followed by a 1 hour reaction time. Final concentrations of PRMT1, SAM, and histone H4 (1-21) refer to a […].
Detection of methylated histone H4 (H4R^3me) was achieved by combining LANCE Ultra Europium-anti-H4R^3me antibody (PerkinElmer, Catalog #TRF04-14), LANCE Ultra ULight-anti-streptavidin antibody (PerkinElmer, Catalog #TRF0102), and sinefungin (Sigma, Catalog #S8559) (final concentrations 2 nM, 50 nM, and 100 μM respectively) in 1× LANCE detection buffer (PerkinElmer, Catalog #CR97-100) and adding L/well of the detection solution to the assay plate. Detection reagents were allowed to react for 1 hour at room temperature. Final concentrations in the detection solution refer to a L volume. The europium fluorescence signal and the ULight TR-FRET signal were measured using a BioTek Synergy Neo plate reader: excitation at 330 nm, emission at 620 nm and 665 nm respectively, and the ratio of the two signals (665 nm/620 nm) was used for curve fitting. IC50 values were calculated using a four-parameter logistic curve fit using Genedata Screener software.

DOHH2 cells = experiment: DOHH2 Long Term Phenotypic Assay (7 days, Cell Titer-Glo viability); format: cell-based; conditions: Homo sapiens, DOHH-2, 168 h, Cell Titer-Glo 2.0
Procedure: DOHH2 cells were kindly provided by Michael Green (MDACC). The cells were routinely maintained in RPMI-1640 Medium (ATCC, Catalog #30-2001) supplemented with 10% fetal bovine serum (Sigma, Catalog #F2442), 100 units/mL penicillin and 100 μg/mL streptomycin (Gibco, Catalog #15140-122) in a humidified incubator (37° C., 5% CO2). Cells were seeded onto a white, CulturPlate-384 (Perkin Elmer, catalog #6007680) at a density of 250 cells per well in a volume of 50 μL. Stock solutions of the test compounds were prepared in 100% DMSO (Sigma, Catalog #D2650) and serially diluted 1:3 using 100% DMSO. Compounds were additionally diluted 1:33 in culture medium, and 10 μL/well was transferred to the tissue culture plate. Following the compound addition, the plate was incubated at 37° C. and 5% CO2 for 7 days. Cells were then mixed and a 30 μL volume was removed. Viability was assessed by a 30 μL addition of Cell Titer-Glo 2.0 (Promega, catalog #G9243). The plate was then shaken on an orbital shaker at 300 RPM for 10 minutes at room temperature, in the dark. Luminescence was measured using a PerkinElmer Envision™ plate reader. IC50 values were calculated using a four-parameter logistic curve fit using Genedata Screener software.

PRMT1 [2] = molecular target: T1, PRMT1; experiment: PRMT1 RKO Cellular Target Engagement Assay (In-Cell Western, asymmetric di-methyl arginine); format: cell-based; conditions: RKO cells, 48 hr compound incubation; read-out: RKO IC50 (PRMT-1 Target Engagement)
Procedure: RKO cells were routinely maintained in EMEM media (ATCC, Catalog #30-2003) supplemented with 10% fetal bovine serum (Sigma, Catalog #F2442) using a humidified incubator (37° C., 5% CO2, and ambient O2).
In preparation for the In-Cell Western assay, cells were harvested and resuspended in EMEM media supplemented with 10% fetal bovine serum. Cells were seeded onto a 384 well, black, clear bottom, Poly-D-Lysine coated tissue culture plate (Greiner, Catalog #781946) at a density of 1,000 cells/well in a volume of 40 μL. The culture plate was incubated for 24 hr at 37° C. with 5% CO2 and ambient O2. Stock solutions of the test compounds were prepared in 100% DMSO (Sigma, Catalog #D2650) and serially diluted 1:3 using 100% DMSO. Compounds were additionally diluted 1:40 in culture medium, and 10 μL/well was transferred to the tissue culture plate. Following the compound addition the microplate was incubated at 37° C. for 48 hr.
The media was removed, the plate was washed with 1× PBS (Fisher Bioreagents, Catalog #BP399-20), and cells were fixed for 10 min using 30 μL/well of 4% paraformaldehyde (Electron Microscopy Sciences, Catalog #15710). The paraformaldehyde was removed, the plate was again washed with 1× PBS, and cells were permeabilized for 15 min using 30 μL/well of 1× PBS containing 0.5% Triton-X 100 (Sigma, Catalog #1001748095). The permeabilization buffer was removed, the plate was washed with 1× PBST (Boston BioProducts, Catalog #IBB-171X), and 50 μL/well of blocking buffer (LI-COR, Catalog #927-40000) was added followed by a 1 hour incubation at room temperature. The blocking buffer was removed, and 20 μL/well of anti-asymmetric di-methyl arginine antibody (Cell Signaling, Catalog #13522S) diluted 1:1000 in LI-COR blocking buffer was added to the plate and incubated overnight, in the dark at 4° C.
The primary antibody was then removed, and the plate was washed three times with 1× PBST. 20 μL/well of CellTag (LI-COR, Catalog #926-41090) and IRDye 800CW goat anti-rabbit IgG antibody (LI-COR, Catalog #926-32211), each diluted 1:500 in LI-COR blocking buffer supplemented with 0.1% Tween-20 (Thermo Scientific, Catalog #85114), were added to the plate. The plate was then incubated in the dark, at room temperature for 1 hour followed by three washes with 1× PBST and one wash with H2O. The IRDye secondary antibody signal (800 channel) and the CellTag signal (700 channel) were measured using a Licor Odyssey Imager, and the 800 channel signal was then normalized to the 700 channel signal. IC50 values were calculated using a four-parameter logistic curve fit using Genedata Screener software.

T1 sequence (Q99873 whole entry): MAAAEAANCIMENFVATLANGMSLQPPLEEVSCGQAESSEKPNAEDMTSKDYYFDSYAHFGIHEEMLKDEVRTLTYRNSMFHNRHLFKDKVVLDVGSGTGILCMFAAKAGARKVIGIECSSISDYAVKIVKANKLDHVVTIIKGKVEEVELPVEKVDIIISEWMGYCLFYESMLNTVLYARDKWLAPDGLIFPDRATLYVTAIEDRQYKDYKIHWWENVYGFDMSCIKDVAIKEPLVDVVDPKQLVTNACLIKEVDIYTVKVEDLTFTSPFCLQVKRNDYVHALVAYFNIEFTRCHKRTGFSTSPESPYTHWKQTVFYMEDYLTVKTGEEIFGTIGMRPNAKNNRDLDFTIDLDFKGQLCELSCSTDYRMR

IC50 (PRMT1 [1]) [nM]	IC50 (PRMT1 [2]) [nM]	SMILES	IC50 (DOHH2 cells) [nM]
54	392	CNCCN(C)Cc1nn2c(c1C1CCC(COC)(COC)CC1)CN(C(=O)C1CCC(F)(F)C1)CC2 (stereo not drawn) [Example 56, (3-(4,4-bis(methoxymethyl)-cyclohexyl)-2-((methyl(2-(methylamino)ethyl)amino)-methyl)-6,7-dihydropyrazolo-[1,5-a]pyrazin-5(4H)-yl)(3,3-difluorocyclopentyl)-methanone]	83
80	267	CNCCN(C)Cc1nn2c(c1C1CCC(COC)(COC)CC1)CN(C(=O)C1(C)CCCO1)CC2 (stereo not drawn) [Example 57, (3-(4,4-bis(methoxymethyl)-cyclohexyl)-2-((methyl(2-(methylamino)ethyl)amino)-methyl)-6,7-dihydropyrazolo-[1,5-a]pyrazin-5(4H)-yl)(2-methyltetrahydrofuran-2-yl)-methanone]	170
48	177	CNCCN(C)Cc1nn2c(c1C1CCC(COC)(COC)CC1)CN(C(=O)C(C)(C)F)CC2 [Example 59, 1-(3-(4,4-bis(methoxy-methyl)cyclohexyl)-2-((methyl(2-(methylamino)-ethyl)amino)methyl)-6,7-dihydropyrazolo[1,5-a]-pyrazin-5(4H)-yl)-2-fluoro-2-methylpropan-1-one]	113
23	1380	COCC1(COC)CCC(c2c(CN(C)CCN)nn3c2CN(C(=O)C2CC(C(F)(F)F)C2)CC3)CC1 (stereo not drawn) [Example 62, (2-(((2-aminoethyl)(methyl)-amino)methyl)-3-(4,4-bis-(methoxymethyl)cyclohexyl)-6,7-dihydropyrazolo[1,5-a]-pyrazin-5(4H)-yl)(3-(trifluoromethyl)cyclobutyl)-methanone]	76
112	2330	CNCCN(C)Cc1nn2c(c1C1CCC(COC)(COC)CC1)CN(C(=O)C1(C(C)C)CCC1)CC2 [Example 64, (3-(4,4-bis(methoxymethyl)-cyclohexyl)-2-((methyl(2-(methylamino)ethyl)amino)-methyl)-6,7-dihydropyrazolo-[1,5-a]pyrazin-5(4H)-yl)(1-isopropylcyclobutyl)-methanone]	230
70	534	CCC(C)C(=O)N1CCn2nc(CN(C)CCNC)c(C3CCC(COC)(COC)CC3)c2C1 (stereo not drawn) [Example 65, 1-(3-(4,4-bis(methoxy-methyl)cyclohexyl)-2-((methyl(2-(methylamino)-ethyl)amino)methyl)-6,7-dihydropyrazolo[1,5-a]-pyrazin-5(4H)-yl)-2-methylbutan-1-one]	134
52	958	CNCCN(C)Cc1nn2c(c1C1CCC(COC)(COC)CC1)CN(C(=O)C1CC(C(F)F)C1)CC2 (stereo not drawn) [Example 66, (3-(4,4-bis(methoxymethyl)-cyclohexyl)-2-((methyl(2-(methylamino)ethyl)amino)-methyl)-6,7-dihydropyrazolo-[1,5-a]pyrazin-5(4H)-yl)(3-(difluoromethyl)cyclobutyl)-methanone]	150
75	273	CCC1(C(=O)N2CCn3nc(CN(C)CCNC)c(C4CCC(COC)(COC)CC4)c3C2)CCC1 [Example 67, (3-(4,4-bis(methoxymethyl)-cyclohexyl)-2-((methyl(2-(methylamino)ethyl)amino)-methyl)-6,7-dihydropyrazolo-[1,5-a]pyrazin-5(4H)-yl)(1-ethylcyclobutyl)methanone]	156

Continued, molecule first:

SMILES	IC50 (PRMT1 [1]) [nM]	IC50 (PRMT1 [2]) [nM]	IC50 (DOHH2 cells) [nM]
CCOC12CC(C(=O)N3CCn4nc(CN(C)CCNC)c(C5CCC(COC)(COC)CC5)c4C3)(C1)C2 [Example 26, (3-(4,4-bis(methoxymethyl)-cyclohexyl)-2-((methyl(2-(methylamino)ethyl)amino)-methyl)-6,7-dihydropyrazolo-[1,5-a]pyrazin-5(4H)-yl)(3-ethoxybicyclo[1.1.1]pentan-1-yl)methanone]	439	2400	844
CNCCN(C)Cc1nn2c(c1C1CCC(COC)(COC)CC1)CN(C(=O)C1CCCCC1)CC2 [Example 51, (3-(4,4-bis(methoxymethyl)-cyclohexyl)-2-((methyl(2-(methylamino)ethyl)amino)-methyl)-6,7-dihydropyrazolo-[1,5-a]pyrazin-5(4H)-yl)-(cyclohexyl)methanone]	58	10000	75
CNCCN(C)Cc1nn2c(c1C1CCC(COC)(COC)CC1)CN(C(=O)CC#N)CC2 [Example 52, 3-(3-(4,4-bis(methoxy-methyl)cyclohexyl)-2-((methyl(2-(methylamino)-ethyl)amino)methyl)-6,7-dihydropyrazolo[1,5-a]-pyrazin-5(4H)-yl)-3-oxopropanenitrile]	71	163	514
CNCCN(C)Cc1nn2c(c1C1CCC(COC)(COC)CC1)CN(C(=O)C(C)(C)COC)CC2 [Example 54, 1-(3-(4,4-bis(methoxy-methyl)cyclohexyl)-2-((methyl(2-(methylamino)-ethyl)amino)methyl)-6,7-dihydropyrazolo[1,5-a]-pyrazin-5(4H)-yl)-3-methoxy-2,2-dimethylpropan-1-one]	103	203	293
CNCCN(C)Cc1nn2c(c1C1CCC(COC)(COC)CC1)CN(C(C)=O)CC2 [Example 55, 1-(3-(4,4-bis(methoxy-methyl)cyclohexyl)-2-((methyl(2-(methylamino)-ethyl)amino)methyl)-6,7-dihydropyrazolo[1,5-a]-pyrazin-5(4H)-yl)ethan-1-one]	70	1110	296

Source: patent US20230416261A1, “ETHANEDIAMINE-HETEROCYCLE DERIVATIVES AS INHIBITORS OF PROTEIN ARGININE METHYLTRANSFERASES” (Board of Regents, The University of Texas System, priority 2021, published 2023)
